Key:
[1] = test system: MDA-MB-231 xenograft (human triple negative breast cancer); experiment: Antitumor efficacy and induction of cures in the MDA-MB-231 xenograft model (Examples 1A, 1B); type: in vivo, mouse
Description: (§1) Female athymic nude mice (Crl:NU(NCr)-Foxnlnu, Charles River) were used when ten weeks old with a body weight (BW) range of 19.7-27.1 g on Day 1 of the study. The animals were fed ad libitum water (reverse osmosis, 1 ppm Cl) and NIH 31 Modified and Irradiated Lab Diet® consisting of 18.0% crude protein, 5.0% crude fat, and 5.0% crude fiber. The mice were housed on irradiated Enrich-o'Cobs™ Laboratory Animal Bedding in static micro-isolators on a 12-hour light cycle at 20-22° C. (68-72° F.) and 40-60% humidity. Charles River Discovery Services North Carolina (CR Discovery Services) specifically complies with the recommendations of the Guide for Care and Use of Laboratory Animals with respect to restraint, husbandry, surgical procedures, feed and fluid regulation, and veterinary care. The animal care and use program at CR Discovery Services is accredited by the Association for Assessment and Accreditation of Laboratory Animal Care International (AAALAC), which assures compliance with accepted standards for the care and use of laboratory animals. These considerations were taken into account in the way that the dosage regimes were designed and implemented.
The human MDA-MB-231 breast adenocarcinoma cells were grown to mid-log phase in RPMI-1640 medium containing 10% fetal bovine serum, 2 mM glutamine, 100 units/mL sodium penicillin G, 25 μg/mL gentamicin, and 100 μg/mL streptomycin sulfate. The tumor cells were cultured in tissue culture flasks in a humidified incubator at 37° C./5% CO2 and 95% air, harvested during exponential growth and resuspended in cold Phosphate-buffered saline (PBS). Each test animal received a subcutaneous (s.c.) injection of 5×10^6 MDA-MB-231 cells (0.1 mL cell suspension) into the right flank, and tumor growth was monitored as the average tumor size approached the target range of 100-150 mm^3. Tumors were measured (mm) in two dimensions using calipers, and volume was calculated using the formula: Tumor Volume (TV) (mm^3)=(width^2×length)/2. Eighteen days after tumor cell implantation, on Day 1 of the study, mice with individual tumor volumes ranging from 75 to 172 mm^3 were randomized into groups of 8-10 animals, with group mean tumor volumes of 114-124 mm^3.
BAL0101553 was dissolved in 0.9% NaCl in water buffered to pH 5 with 1% sodium acetate to yield 2, 2.5 and 3 mg/mL dosing solutions, providing 20, 25 and 30 mg/kg dosages, respectively, in 10 mL/kg dosing volumes. Eribulin (purchased from Eisai Co., Lot. No. 6217, 6288, 6289 and 6309) at 0.5 mg/mL concentration was diluted in saline to yield a 0.01, 0.025 and 0.05 mg/mL dosing solutions, providing 0.1, 0.25 and 0.5 mg/kg dosages, respectively, in a dosing volume of 10 mL/kg.
Groups of mice (n=8-10) bearing MDA-MB-231 tumors were dosed as outlined in the Tables 1 and 3. All doses were adjusted to 10 mL/kg. The control groups received oral doses of vehicle (pH 5 buffered 0.9% NaCl solution). Eribulin was administered i.v. and BAL101553 orally. When eribulin and BAL0101553 were dosed in combination, Eribulin was administered to all groups first followed by BAL0101553 dosing within 30 minutes of the first regimen.
Body weights were recorded daily for days 1-5 and then twice weekly until the end of the study and tumor volumes were recorded twice weekly until the end of the experiment. These parameters were analyzed and graphically represented by using GraphPad-Prism™ 5 for Windows according to standard procedure. […] Tumor free animals at the end of the study time were assessed for residual MDA-MB-231 tumor cells by pathological methods. Skin and subcutaneous tissue including the tumor cell inoculation site from the flank region were resected, preserved in formalin and embedded in paraffin.

[2] = Tolerability in the MDA-MB-231 xenograft model (body weight, mortalities); conditions: for Final body-weight / Body-weight change: mean ± SD
Description: as §1, with “The” for “Female athymic nude mice (Crl:NU(NCr)-Foxnlnu, Charles River) were used when ten weeks old with a body weight (BW) range of 19.7-27.1 g on Day 1 of the study. The animals were fed ad libitum water (reverse osmosis, 1 ppm Cl) and NIH 31 Modified and Irradiated Lab Diet® consisting of 18.0% crude protein, 5.0% crude fat, and 5.0% crude fiber. The”
All doses were adjusted to 10 mL/kg. The control groups received oral doses of vehicle (pH 5 buffered 0.9% NaCl solution). Eribulin was administered i.v. and BAL101553 orally. When eribulin and BAL0101553 were dosed in combination, Eribulin was administered to all groups first followed by BAL0101553 dosing within 30 minutes of the first regimen.
Body weights were recorded daily for days 1-5 and then twice weekly until the end of the study and tumor volumes were recorded twice weekly until the end of the experiment. These parameters were analyzed and graphically represented by using GraphPad-Prism™ 5 for Windows according to standard procedure. […] Skin and subcutaneous tissue including the tumor cell inoculation site from the flank region were resected, preserved in formalin and embedded in paraffin. Sections of approximately 5 μm were mounted on glass slides and stained with hematoxylin/eosin and were evaluated by a trained pathologist, to identify residual tumor cells at the site of injection, and were being reported as positive for the existence of residual tumor cells or as negative for a complete lack of any evidence of residual tumor cells.

[3] = Day 26, Eribulin i.v. 0.1 mg/kg q2d D1-D21, 0.1 mg/kg q2d D25-D43
[4] = Day 26, Eribulin i.v. 0.25 mg/kg q2d D1-D21, 0.25 mg/kg q2d D25-D43
[5] = Day 26, Eribulin i.v. 0.5 mg/kg q2d D1-D21, 0.5 mg/kg q2d D25-D43
[6] = Day 100 (endpoint), Eribulin i.v. 0.1 mg/kg q2d D1-D21, 0.1 mg/kg q2d D25-D43
[7] = Day 100 (endpoint), Eribulin i.v. 0.25 mg/kg q2d D1-D21, 0.25 mg/kg q2d D25-D43
[8] = Day 100 (endpoint), Eribulin i.v. 0.5 mg/kg q2d D1-D21, 0.5 mg/kg q2d D25-D43
[9] = E1A, Day 25, i.v. 0-1 mg/kg q2d D1-D9, 0.1 mg/kg q2d D12-D34
[10] = E1A, Day 25, i.v. 0.5 mg/kg q2d D1-D9, 0.5 mg/kg q2d D12-D34
[11] = E1A, Day 85 (endpoint), i.v. 0-1 mg/kg q2d D1-D9, 0.1 mg/kg q2d D12-D34
[12] = E1A, Day 85 (endpoint), i.v. 0.5 mg/kg q2d D1-D9, 0.5 mg/kg q2d D12-D34
[13] = E1A, Day 25, i.v. 0.1 mg/kg q2d D1-D9, 0.1 mg/kg q2d D12-D34
[14] = E1B, Day 26, i.v. 0.1 mg/kg q2d D1-D21, 0.1 mg/kg q2d D25-D43
[15] = E1B, Day 26, i.v. 0.25 mg/kg q2d D1-D21, 0.25 mg/kg q2d D25-D43
[16] = E1B, Day 26, i.v. 0.5 mg/kg q2d D1-D21, 0.5 mg/kg q2d D25-D43

C=C1C[C@@H]2CC[C@@]34C[C@H]5O[C@H]6[C@@H](O3)[C@H]3O[C@H](CC[C@@H]3O[C@H]6[C@H]5O4)CC(=O)C[C@@H]3[C@@H](OC)[C@@H](C[C@H](O)CN)O[C@H]3C[C@H]3O[C@@H](CC[C@@H]1O2)C[C@@H](C)C3=C.CS(=O)(=O)O [Eribulin, (2R, 3R, 3aS, 7R, 8aS, 9S, 10aR, 11S, 12R, 13aR, 13bS, 15S, 18S, 21S, 24S, 26R, 28R, 29aS)-2-[(2S)-3-Amino-2-hydroxypropyl]-3-methoxy-26-methyl-20,27-dimethylidenehexacosahydro-11,15:18,21:24,28-triepoxy-7,9-ethano-12,15-methano-9H,15H-furo[3,2-i]furo[2′,3′:5,6]pyrano[4,3-b][1,4]dioxacyclopentacosin-5(4H)-one methanesulfonate (salt)]
# of regressed tumors (total) [1, 3]: 2 (10) | T/C [1, 3]: 0.12 | # of regressed tumors (total) [1, 4]: 8 (10) | T/C [1, 4]: −0.05 | # of regressed tumors (total) [1, 5]: 10 (10) | T/C [1, 5]: −0.09 | # of confirmed cures (total) [1, 6]: 0 (10) | # of tumors with TV ≤ 4 mm^3 (total) [1, 6]: 0 (10) | % cures [1, 6]: 0% | # of confirmed cures (total) [1, 7]: 1 (9) | # of tumors with TV ≤ 4 mm^3 (total) [1, 7]: 1 (10) | % cures [1, 7]: 11% | # of confirmed cures (total) [1, 8]: 6 (10) | # of tumors with TV ≤ 4 mm^3 (total) [1, 8]: 2 (10) | % cures [1, 8]: 60% | # of regressed tumors (total) [1, 9]: 1 (8) | T/C [1, 9]: 0.13 | # of regressed tumors (total) [1, 10]: 8 (8) | T/C [1, 10]: −0.09 | # of confirmed cures (total) [1, 11]: 0 (8) | # of tumors with TV ≤ 4 mm^3 (total) [1, 11]: 0 (8) | % cures [1, 11]: 0% | # of confirmed cures (total) [1, 12]: 1 (8) | # of tumors with TV ≤ 4 mm^3 (total) [1, 12]: 3 (8) | % cures [1, 12]: 12.5% | T/C (TC-BW, body weight) [2, 13]: 1.00 | T/C (TC-BW, body weight) [2, 10]: 0.96 | Final body-weight [2, 13]: 25.8 ± 3.0 g | Final body-weight [2, 10]: 24.4 ± 1.9 g | Body-weight change ([2]; E1A, day-0 until day-25, i.v. 0.1 mg/kg q2d D1-D9, 0.1 mg/kg q2d D12-D34): 2.1 ± 1.0 g | Mortalities ([2]; E1A, i.v. 0.1 mg/kg q2d D1-D9, 0.1 mg/kg q2d D12-D34): 0/8 | Mortalities ([2]; E1A, i.v. 0.5 mg/kg q2d D1-D9, 0.5 mg/kg q2d D12-D34): 0/8 | T/C (TC-BW, body weight) [2, 14]: 1.09 | T/C (TC-BW, body weight) [2, 15]: 1.02 | T/C (TC-BW, body weight) [2, 16]: 1.03 | Final body-weight [2, 14]: 27.9 ± 2.7 g | Final body-weight [2, 15]: 26.6 ± 1.7 g | Final body-weight [2, 16]: 25.5 ± 1.5 g | Body-weight change ([2]; E1B, day-0 until day-26, i.v. 0.1 mg/kg q2d D1-D21, 0.1 mg/kg q2d D25-D43): 3.9 ± 1.1 g | Body-weight change ([2]; E1B, day-0 until day-26, i.v. 0.25 mg/kg q2d D1-D21, 0.25 mg/kg q2d D25-D43): 2.3 ± 1.0 g | Body-weight change ([2]; E1B, day-0 until day-26, i.v. 0.5 mg/kg q2d D1-D21, 0.5 mg/kg q2d D25-D43): 2.3 ± 0.9 g | Mortalities ([2]; E1B, i.v. 0.1 mg/kg q2d D1-D21, 0.1 mg/kg q2d D25-D43): 0/10 | Mortalities ([2]; E1B, i.v. 0.25 mg/kg q2d D1-D21, 0.25 mg/kg q2d D25-D43, a non-treatment related death footnoted): 0/10^+ | Mortalities ([2]; E1B, i.v. 0.5 mg/kg q2d D1-D21, 0.5 mg/kg q2d D25-D43): 0/10
